Laboratory results published in patent US20220040129A1, “TREATMENT OF HYPERAMMONEMIA IN PATIENTS WITH RENAL INSUFFICIENCY” (RECORDATI S.p.A., priority 2019, published 2022).
Like-named read-outs stand apart in the source and are kept apart here.

Assay: CARIV-A-001 Part A: single ascending IV doses over 20 minutes in healthy subjects
Assay type: in vivo, human
Details: for CL renal / AUC(0-t) / AUC(0-inf) / clearance / Cmax / half-life / Vd: both sexes, human, iv; for CL renal: plasma and urine; for AUC(0-t) / AUC(0-inf) / clearance / Cmax / half-life / Vd: plasma
Protocol: This study was conducted in healthy male or female volunteers, at a single site to assess the safety and PK profile of an IV formulation of Carbaglu and to determine the absolute bioavailability of the current marketed oral formulation of Carbaglu.
The levels of CGA in plasma and urine were analysed using a fully validated method, which included LC-MS/MS analysis. The PK data were analysed based on a non-compartmental model. A model-based approach was implemented for the characterization of the PK properties of the IV formulation in order to estimate the level of PK exposure after different doses administered with different duration of infusion. […] The PK parameters were determined using SAS (version 9.3), and modelling of the PK data was performed using NONMEM (version 7.3, ICON Solutions). PART A: Mono-Centre, Randomized, Successive Groups, Double-Blind, Placebo-Controlled Study in Healthy Male and Female Subjects
Each cohort included a minimum of 3 and maximum of 5 subjects of each of the two genders.
Three loading doses of CGA over 20 minutes were tested by IV administration, 3.5 mg/kg, 5.0 mg/kg and 7.5 mg/kg. For each of these three doses, 6 subjects were administered CGA and 2 received the placebo.
Plasma concentrations of CGA were measured at 18 timepoints, including a sample preceding the start of the administration, and then between 10 minutes and 48 hours following the initiation of the IV infusion.
The PK analysis of Carbaglu was conducted by using standard non-compartmental approach.

For `NC(=O)N[C@@H](CCC(=O)O)C(=O)O` [carglumic acid, N-carbamoyl-L-glutamic acid], the “Plasma levels observed, up to” value (IV administration over 20 minutes, healthy volunteers) was “up to 26,500 ng/mL”, the “Dose dependence of AUCinf, AUClast and Cmax” value (IV doses in the range of 3.5 mg/kg to 7.5 mg/kg) was “increase linearly” and the “Percent of dose excreted in urine” value (IV over 20 minutes, stable across the doses evaluated) was ~75%. The “Concentration up to which linearity of PK was shown” value (Part A) was “up to 26.5 μg/mL”, the “Dose excreted in the urine as parent compound over 24 hours” value (after IV administration) was 75 % of the dose and the CL renal (3.5 mg/kg, IV over 20 minutes, 3.5 mg/kg, read-out: Renal Clearance (RCl), Mean) was 4.33 mL/min/kg. The CL renal (3.5 mg/kg, IV over 20 minutes, 3.5 mg/kg, read-out: Renal Clearance (RCl), Median) was 4.17 mL/min/kg, the CL renal (3.5 mg/kg, IV over 20 minutes, 3.5 mg/kg, read-out: Renal Clearance (RCl), Range) was 3.33 to 5 mL/min/kg and the CL renal (5 mg/kg, IV over 20 minutes, 5.0 mg/kg, read-out: Renal Clearance (RCl), Mean) was 3.83 mL/min/kg. The CL renal (5 mg/kg, IV over 20 minutes, 5.0 mg/kg, read-out: Renal Clearance (RCl), Median) was 3.67 mL/min/kg, the CL renal (5 mg/kg, IV over 20 minutes, 5.0 mg/kg, read-out: Renal Clearance (RCl), Range) was 3.17 to 5.17 mL/min/kg and the CL renal (7.5 mg/kg, IV over 20 minutes, 7.5 mg/kg, read-out: Renal Clearance (RCl), Mean) was 4.33 mL/min/kg. It also gave a CL renal (7.5 mg/kg, IV over 20 minutes, 7.5 mg/kg, read-out: Renal Clearance (RCl), Median) of 4.17 mL/min/kg, a CL renal (7.5 mg/kg, IV over 20 minutes, 7.5 mg/kg, read-out: Renal Clearance (RCl), Range) of 3.5 to 5.33 mL/min/kg and a CL renal (IV over 20 minutes, stable across doses, read-out: Renal clearance (converted)) of ~4.17 mL/min/kg. The CL renal (after IV administration, read-out: Renal clearance, median) was 265 mL/min, the CL renal (after IV administration, read-out: Renal clearance, range) was 183 to 467 mL/min and the AUC(0-t) (3.5 mg/kg, IV over 20 minutes, 3.5 mg/kg, read-out: AUC24h, Mean) was 9850 ng·h/mL. For the same molecule, the AUC(0-t) (3.5 mg/kg, IV over 20 minutes, 3.5 mg/kg, read-out: AUC24h, Median) was 9690 ng·h/mL, the AUC(0-t) (3.5 mg/kg, IV over 20 minutes, 3.5 mg/kg, read-out: AUC24h, Range) was 8990 to 11000 ng·h/mL and the AUC(0-inf) (3.5 mg/kg, IV over 20 minutes, 3.5 mg/kg, read-out: AUCinf, Mean) was 11000 ng·h/mL. It also gave an AUC(0-inf) (3.5 mg/kg, IV over 20 minutes, 3.5 mg/kg, read-out: AUCinf, Median) of 10900 ng·h/mL, an AUC(0-inf) (3.5 mg/kg, IV over 20 minutes, 3.5 mg/kg, read-out: AUCinf, Range) of 9740 to 12500 ng·h/mL and an AUC(0-t) (3.5 mg/kg, IV over 20 minutes, 3.5 mg/kg, read-out: AUClast-timepoint, Mean) of 10200 ng·h/mL. The AUC(0-t) (3.5 mg/kg, IV over 20 minutes, 3.5 mg/kg, read-out: AUClast-timepoint, Median) was 10100 ng·h/mL, the AUC(0-t) (3.5 mg/kg, IV over 20 minutes, 3.5 mg/kg, read-out: AUClast-timepoint, Range) was 8990 to 11500 ng·h/mL and the clearance (3.5 mg/kg, IV over 20 minutes, 3.5 mg/kg, read-out: Clearance (Cl), Mean) was 5.33 mL/min/kg. For the same molecule, the clearance (3.5 mg/kg, IV over 20 minutes, 3.5 mg/kg, read-out: Clearance (Cl), Median) was 5.33 mL/min/kg, the clearance (3.5 mg/kg, IV over 20 minutes, 3.5 mg/kg, read-out: Clearance (Cl), Range) was 4.67 to 6 mL/min/kg and the Cmax (3.5 mg/kg, IV over 20 minutes, 3.5 mg/kg, read-out: Cmax, Mean) was 11400 ng/mL. It also gave a Cmax (3.5 mg/kg, IV over 20 minutes, 3.5 mg/kg, read-out: Cmax, Median) of 11400 ng/mL, a Cmax (3.5 mg/kg, IV over 20 minutes, 3.5 mg/kg, read-out: Cmax, Range) of 10700 to 12300 ng/mL and a half-life (3.5 mg/kg, IV over 20 minutes, 3.5 mg/kg, read-out: T1/2, Mean) of 20.6 h. It also gave a half-life (3.5 mg/kg, IV over 20 minutes, 3.5 mg/kg, read-out: T1/2, Median) of 21.1 h, a half-life (3.5 mg/kg, IV over 20 minutes, 3.5 mg/kg, read-out: T1/2, Range) of 6.6 to 36.1 h and a Vd (3.5 mg/kg, IV over 20 minutes, 3.5 mg/kg, read-out: Volume of Distribution (Vd), Mean) of 9.28 L/kg. It also gave a Vd (3.5 mg/kg, IV over 20 minutes, 3.5 mg/kg, read-out: Volume of Distribution (Vd), Median) of 8.75 L/kg, a Vd (3.5 mg/kg, IV over 20 minutes, 3.5 mg/kg, read-out: Volume of Distribution (Vd), Range) of 3.26 to 15.5 L/kg and an AUC(0-t) (5 mg/kg, IV over 20 minutes, 5.0 mg/kg, read-out: AUC24h, Mean) of 14800 ng·h/mL. The AUC(0-t) (5 mg/kg, IV over 20 minutes, 5.0 mg/kg, read-out: AUC24h, Median) was 14900 ng·h/mL, the AUC(0-t) (5 mg/kg, IV over 20 minutes, 5.0 mg/kg, read-out: AUC24h, Range) was 11100 to 19300 ng·h/mL and the AUC(0-inf) (5 mg/kg, IV over 20 minutes, 5.0 mg/kg, read-out: AUCinf, Mean) was 16100 ng·h/mL. It also gave an AUC(0-inf) (5 mg/kg, IV over 20 minutes, 5.0 mg/kg, read-out: AUCinf, Median) of 16600 ng·h/mL, an AUC(0-inf) (5 mg/kg, IV over 20 minutes, 5.0 mg/kg, read-out: AUCinf, Range) of 12300 to 20000 ng·h/mL and an AUC(0-t) (5 mg/kg, IV over 20 minutes, 5.0 mg/kg, read-out: AUClast-timepoint, Mean) of 15300 ng·h/mL. It also gave an AUC(0-t) (5 mg/kg, IV over 20 minutes, 5.0 mg/kg, read-out: AUClast-timepoint, Median) of 15600 ng·h/mL, an AUC(0-t) (5 mg/kg, IV over 20 minutes, 5.0 mg/kg, read-out: AUClast-timepoint, Range) of 11500 to 19300 ng·h/mL and a clearance (5 mg/kg, IV over 20 minutes, 5.0 mg/kg, read-out: Clearance (Cl), Mean) of 5.33 mL/min/kg. It also gave a clearance (5 mg/kg, IV over 20 minutes, 5.0 mg/kg, read-out: Clearance (Cl), Median) of 5 mL/min/kg, a clearance (5 mg/kg, IV over 20 minutes, 5.0 mg/kg, read-out: Clearance (Cl), Range) of 4.17 to 6.83 mL/min/kg and a Cmax (5 mg/kg, IV over 20 minutes, 5.0 mg/kg, read-out: Cmax, Mean) of 15000 ng/mL. It also gave a Cmax (5 mg/kg, IV over 20 minutes, 5.0 mg/kg, read-out: Cmax, Median) of 15600 ng/mL, a Cmax (5 mg/kg, IV over 20 minutes, 5.0 mg/kg, read-out: Cmax, Range) of 8420 to 19100 ng/mL and a half-life (5 mg/kg, IV over 20 minutes, 5.0 mg/kg, read-out: T1/2, Mean) of 21.6 h. The half-life (5 mg/kg, IV over 20 minutes, 5.0 mg/kg, read-out: T1/2, Median) was 21.4 h and the half-life (5 mg/kg, IV over 20 minutes, 5.0 mg/kg, read-out: T1/2, Range) was 12.8 to 29.3 h.
